Data as given in patent publication US7579336B2, “Pharmaceutical composition comprising temozolomide ester” (Tian Jin Tasly Group Co., Ltd., priority 2004, dated 2009).
In brackets after ≈: the same amount, converted by molar mass. Where two headings read alike, the source gives them in different places. Marks after values point to notes of the source that are not given here.

Columns and labels:
[1] = tested on: HCT-8(human colon carcinoma cells); experiment: MTT reduction assay, killing tumor cells; type: cell-based; settings: HCT-8 cells, four days culture with drug
Experimental: (§1) The experiment was carried out for methyl TMZ-8-carboxylate, butyl TMZ-8-carboxylate, n-hexyl TMZ-8-carboxylate, and TMZ acid which had been known as an active compound against carcinoma, and used fluorouracil injection (10 ml:0.25 g, purchased from Xudong Pharmaceutical Co. Ltd, the batch number was 000612) as the drug for the positive control. Cancer cell strains used in experiments included HCT-8(human colon carcinoma cells), A549 (human lung carcinoma cells), MCF-7(human breast carcinoma cells), Bel7402 (human liver carcinoma cells), BGC-823(human gastric carcinoma cells) and MV3 (human melanoma cells).
(§2) TMZ acid is white powder; Methyl TMZ-8-carboxylate, butyl TMZ-8-carboxylate and n-hexyl TMZ-8-carboxylate, white scaly crystals, manufactured by the method described in Example 2; Fluorouracil injection (10 ml: 0.25 g): as drug for the positive control, manufactured by Xudong Pharmaceutical Co. Ltd, the batch number 000612; RPMI: produced by GIBCO; Calf serum: manufactured by Sijiqing bio-engineer material Co. Ltd, Hangzhou; and MTT: produced by Bebco.
(§3) All cancer cell strains of HCT-8, A549, MCF-7, Bel-7402, BGC-823, MV3 and B16 was fostered and transferred of culture by Institute of Materia Medica, Chinese Academy of Medical Sciences and Peking Union Medical College.
(§4) Tetrazolium salt [3-(4,5-dimethylthiazol-2-yl)-2,5-diphenyl-tetrazolium bromide, MTT] reduction assay was used. All the well-grown carcinoma cells were collected, prepared intol 1×10^4/ml cell suspension with the RPMI 1640 culture solution containing 10% calf serum, and inoculated in 96-well culture plate, with 100 uL per well (containing 1000 cancer cells). After 24 hours of culture in 5% CO2 thermos incubator at temperature of 37° C. the drugs were added. Blank control group was established and the drug for the positive control was Fluorouracil. The tested drugs were divided into five groups at different concentrations, each concentration was tested for three times parallelly, and placed in 5% CO2 thermos incubator at temperature of 37° C. to culture for four days. The culture solution was discarded and 100 uL of MTT solution (0.4 mg/ml, prepared with RPMI 1640) was added per well to continue to culture for four hours at temperature of 37° C. The supernate was discarded and 150 uL of DMSO was added to dissolve Fomazan granules. After slight agitation, the OD value was measured with BIORAD 550 enzyme labeling instrument at the measuring wavelength of 540 nm and the reference wavelength of 450 nm.
(§5) Data of cell inhibiting rate was then plotted vs. the concentration of drugs to obtain the dose-reaction curve, by which 50% inhibitory concentration IC50 was calculated (see Table 1 and Table 2).

[2] = tested on: MCF-7(human breast carcinoma cells); experiment: MTT reduction assay, killing tumor cells; type: cell-based; settings: MCF-7 cells, four days culture with drug
Experimental: as §1, §2, §3, §4, §5

[3] = tested on: BGC-823(human gastric carcinoma cells); experiment: MTT reduction assay, killing tumor cells; type: cell-based; settings: BGC-823 cells, four days culture with drug
Experimental: as §1, §2, §3, §4, §5

[4] = tested on: A549 (human lung carcinoma cells); experiment: MTT reduction assay, killing tumor cells; type: cell-based; settings: four days culture with drug
Experimental: as §1, §2, §3, §4, §5

[5] = tested on: MV3 (human melanoma cells); experiment: MTT reduction assay, killing tumor cells; type: cell-based; settings: four days culture with drug
Experimental: as §1, §2, §3, §4, §5

[6] = tested on: Bel7402 (human liver carcinoma cells); experiment: MTT reduction assay, killing tumor cells; type: cell-based; settings: Bel-7402 cells, four days culture with drug
Experimental: as §1, §2, §3, §4, §5

[7] = tested on: HCT-8, A549, MCF-7, Bel7402, BGC-823 and MV3 cancer cell strains; experiment: MTT reduction assay, summary over the selected cell strains; type: cell-based; settings: Homo sapiens; summary of Table 1 over all selected cell strains; read-out: IC50 ranges for the selected cell strains
Experimental: as §1, §4, §5

[8] = Stability of TMZ-8-carboxylate in media of different pH (HPLC); type: physicochemical; settings: 1% aqueous solution, sampled up to 32 months
Experimental: The sodium hydroxide and citric acid were accurately weighed and respectively diluted with water to form the solution with the pH value of 7.5, 7.0, 6.5, 6.0 and 5.5. n-Hexyl TMZ-8-carboxylate was accurately weighed, and dissolved into said aqueous solutions with different pH values to form a series of 1% solutions of n-hexyl TMZ-8-carboxylate. Three sample solutions (20 ml) were taken out in each of above solutions and placed into 50 ml volumetric brown glass bottle, sealed and allowed to stand at room temperature. At 1, 4, 8, 12, 16, 20, 24, 28, 32 months after beginning, the solutions were sampled and determined the concentration of n-hexyl TMZ-8-carboxylate by HPLC, to calculate the average of three parallel solutions and plotted.

[9] = tested on: xenotransplanted human melanoma MV3; experiment: Topical administration, growth of xenotransplanted human melanoma in MV3 nude mouse; type: in vivo, nude mouse of BALB/c-nu
Experimental: Hexyl TMZ-8-carboxylate was selected as the representative to investigate the influence of TMZ-8-carboxylate derivatives on the growth of xenotransplanted human melanoma in MV3 nude mouse.
Hexyl TMZ-8-carboxylate was dissolved in DMSO to obtain 50 mg/ml solution. Human melanoma was xenotransplanted to nude mouse of BALB/c-nu to allow it to grow. Until the tumor expanded to the volume of 100˜300 mm^3, all animals were divided into two groups in accordance with the size of tumor, eight mice per group.
Of these two groups, one was the treatment group in therapeutical treatment by spreading the solution of hexyl TMZ-8-carboxylate; another was the control group where the tumor grows naturally.
In the treatment group, the drug was administered by spreading drug at the position of tumor and surrounding area (2 cm×2 cm) twice a day (once on Saturday and Sunday). Every time, when the solution was dried, administration was repeated for 1 to 2 times. The daily average dose of hexyl TMZ-8-carboxylate administered for a mouse totally was about 20 mg.
The volume of tumor in mouse was measured twice a week, so as to observe and record their growth dynamically. Until the tumor of the control group grew up to a certain volume, all the mice were killed the tumors were stripped off and weighed, growth inhibition rate was calculated. Tumor proliferation (T/C(%)) was calculated using relative volume of tumor in two groups.
Tumor volume (TV) was calculated by the equation as follows: Length×width^2÷2
The relative tumor volume is calculated by the equation as follows: Vt/Vo
Wherein the Vo is the TV measured at the time when the animals were raised in separate cages, and […] is the TV measured each time after.
The t-test was used to compare the statistical difference between two groups in many indexes such as tumor weight, TV and RTV. The relative tumor proliferation rate (T/C(%))was used as the index of bioactivity for anti tumor, which was calculated as follows: […]
The effect was evaluated by statistical analysis. The effect was regarded as invalid when T/C (%) is more than 60, and as effective when T/C (%) is equal to or less than 60 and p<0.05.

[10] = Stability of TMZ-8-carboxylate derivatives in alcohols (HPLC); type: physicochemical; settings: room temperature, sampled up to 32 months
Experimental: n-hexyl TMZ-8-carboxylate was weighed accurately and prepared into 1% of solution by diluting respectively with methanol, ethanol, isopropanol and tert-butyl alcohol. Three sample solutions (20 ml) were taken out in each of above solutions and placed into 50 ml volumetric brown glass bottle, sealed and allowed to stand at room temperature. At time of 1, 4, 8, 12, 16, 20, 24, 28, 32 months after beginning, the solutions were sampled and determined the concentration of n-hexyl TMZ-8-carboxylate by HPLC, to calculate the average value of three parallel solutions and plotted.

[11] = studies published in WO0057867; cited from earlier work
[12] = Homo sapiens, 96 h, read-out: IC50
[13] = Homo sapiens, MCF7, 96 h, read-out: IC50
[14] = Homo sapiens, MV-3, 96 h, read-out: IC50
[15] = 20 mg/day/mouse spread on tumor, beginning of test, X ± SD

## CCCCOC(=O)c1ncn2c(=O)n(C)nnc12 [butyl TMZ-8-carboxylate, Butyl 3,4-dihydro-3-methyl-4-oxoimidazo[5,1-d]-1,2,3,5-tetrazine-8-carboxylate]
[1]; [12]
  IC50: 27.4 µg/mL (≈ 109 µM)
[2]; [13]
  IC50: 16.6 µg/mL (≈ 65.9 µM)
[3]; [12]
  IC50: > 19.5 µg/mL
[4]; [12]
  IC50: 25.3 µg/mL (≈ 101 µM)
[5]; [14]
  IC50: 7.57 µg/mL (≈ 30.1 µM)
[6]; [12]
  IC50: 24.4 µg/mL (≈ 97 µM)
[7]
  IC50: 10 to 30 µg/mL (≈ 39.8 to 119 µM)

## O=c1[nH]cc(F)c(=O)[nH]1 [Fluorouracil, reference compound]
[5]; [14]
  IC50: 0.427 µg/mL (≈ 3.28 µM)

## CCCCCCOC(=O)c1ncn2c(=O)n(C)nnc12 [n-hexyl TMZ-8-carboxylate, n-hexyl 3,4-dihydro-3-methyl-4-oxoimidazo[5,1-d]-1,2,3,5-tetrazine-8-carboxylate]
[2]; [13]
  IC50: 20 µg/mL (≈ 71.6 µM)
[3]; [12]
  IC50: > 19.5 µg/mL
[5]; [14]
  IC50: 8.84 µg/mL (≈ 31.6 µM)
[8]; pH 6.5, 6.0 and 5.5, room temperature
  Stability in acidic (pH<7.0) medium: keep relatively stable
[8]; pH7.0, room temperature
  Stability in neutral (pH7.0) medium: rapidly decomposes
[8]; pH7.5, room temperature
  Stability in weakly alkaline (pH7.5) medium: rapidly decomposes
[9]; 20 mg daily externally administered per mouse, human melanoma MV3
  Effect on the growth of carcinomas in the mice: significant inhibiting effects
[9]; [15]
  Body weight(g) Beginning test: 24.0 ± 1.48 g
  Tumor volume (mm^3) Beginning test: 115 ± 36 mm^3
[9]; 20 mg/day/mouse spread on tumor, end of test, X ± SD
  Body weight(g) End test: 25.6 ± 3.64 g
[9]; 20 mg/day/mouse spread on tumor, end of test, X ± SD, P < 0.05 vs control
  Tumor volume (mm^3) End test: 635 ± 545.1* mm^3
[9]; 20 mg/day/mouse topical, end of test, X ± SD
  Weight of tumor: 0.45 ± 0.335 g
[9]; growth inhibition rate from tumor weight, 20 mg/day/mouse topical
  Inhibiting rate (%): 83.2%
[9]; relative tumor proliferation rate, 20 mg/day/mouse topical, effective if <= 60 and p<0.05
  T/C(%): 33.7%
[9]; relative tumor volume Vt/Vo, 20 mg/day/mouse topical
  RTV: 3.25 ± 1.85
[7]
  IC50: 10 to 30 µg/mL (≈ 35.8 to 107 µM)
[10]; 1% solution in ethanol
  Stability in ethanol: rapidly decomposes
[10]; 1% solution in isopropanol
  Stability in isopropanol: keeps stable
[10]; 1% solution in methanol
  Stability in methanol: rapidly decomposes
[10]; 1% solution in tert-butyl alcohol
  Stability in tert-butyl alcohol: keeps stable

## COC(=O)c1ncn2c(=O)n(C)nnc12 [methyl TMZ-8-carboxylate, Methyl 3,4-dihydro-3-methyl-4-oxoimidazo[5,1-d]-1,2,3,5-tetrazine-8-carboxylate]
[1]; [12]
  IC50: 28.4 µg/mL (≈ 136 µM)
[2]; [13]
  IC50: 17.7 µg/mL (≈ 84.5 µM)
[3]; [12]
  IC50: > 19.5 µg/mL
[4]; [12]
  IC50: 27 µg/mL (≈ 129 µM)
[5]; [14]
  IC50: 8.83 µg/mL (≈ 42.2 µM)
[6]; [12]
  IC50: 25.3 µg/mL (≈ 121 µM)
[7]
  IC50: 10 to 30 µg/mL (≈ 47.8 to 143 µM)

## Cn1nnc2c(C(=O)O)ncn2c1=O [TMZ acid, reference compound]
[1]
  IC50: 18.525 µg/mL (≈ 94.9 µM)
[2]
  IC50: 14.911 µg/mL (≈ 76.4 µM)
[3]
  IC50: >19.5 µg/mL
[4]
  IC50: >19.5 µg/mL
[5]
  IC50: 14.625 µg/mL (≈ 74.9 µM)
[6]
  IC50: 16.957 µg/mL (≈ 86.9 µM)

## Cn1nnc2c(C(N)=O)ncn2c1=O [TMZ, Temozolomide]
[11]
  Permeation of artificial skin (silicon membrane), rat skin and human skin: inability to permeate
